Counter-ions that a name gives are not always drawn. Like-named read-outs stand apart in the source and are kept apart here.
Tests used:
[1] = target: T1, recombinant human MAO-A (Homo sapiens, UniProt P21397); assay: Cell-free Fluorescent Monoamine Oxidase A&B Detection Assay, MAO-A; format: biochemical
T1 sequence (P21397 1-527): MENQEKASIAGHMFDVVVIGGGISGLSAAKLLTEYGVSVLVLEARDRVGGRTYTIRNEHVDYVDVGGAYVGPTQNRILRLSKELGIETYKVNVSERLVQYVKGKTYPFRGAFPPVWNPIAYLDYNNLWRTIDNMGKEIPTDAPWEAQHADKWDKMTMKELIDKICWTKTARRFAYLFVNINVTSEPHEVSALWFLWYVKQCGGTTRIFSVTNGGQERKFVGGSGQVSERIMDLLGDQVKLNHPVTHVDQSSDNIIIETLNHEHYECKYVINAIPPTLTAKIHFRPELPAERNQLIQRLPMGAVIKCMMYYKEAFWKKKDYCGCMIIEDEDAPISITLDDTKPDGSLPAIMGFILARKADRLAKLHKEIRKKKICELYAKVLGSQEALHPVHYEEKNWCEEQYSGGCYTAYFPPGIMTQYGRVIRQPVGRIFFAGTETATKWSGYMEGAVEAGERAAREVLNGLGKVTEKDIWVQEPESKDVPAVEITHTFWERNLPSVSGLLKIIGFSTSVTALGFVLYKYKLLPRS
Procedure: (§1) The assay was repeated to confirm data.
(§2) MAO B specific inhibitory activity and selectivity over MAO A is assayed using a commercial kit [Fluoro MAO A and B detection kit (Cell Technology Inc™)]. This kit uses a non-fluorescent detection reagent to measure H2O2 released from the conversion of an MAO A and MAO B substrate specific to its aldehyde. Furthermore, H2O2 oxidizes the detection reagent in a 1:1 stoichiometry to produce a fluorescent product (resorufin). […] This information is then provided to the medicinal chemists to help direct synthesis of subsequent iterations.

[2] = target: T2, recombinant human MAO-B (Homo sapiens, UniProt P27338); assay: Cell-free Fluorescent Monoamine Oxidase A&B Detection Assay, MAO-B; format: biochemical; settings: for IC50: read-out: IC50 MAO-B
T2 sequence (P27338 1-520): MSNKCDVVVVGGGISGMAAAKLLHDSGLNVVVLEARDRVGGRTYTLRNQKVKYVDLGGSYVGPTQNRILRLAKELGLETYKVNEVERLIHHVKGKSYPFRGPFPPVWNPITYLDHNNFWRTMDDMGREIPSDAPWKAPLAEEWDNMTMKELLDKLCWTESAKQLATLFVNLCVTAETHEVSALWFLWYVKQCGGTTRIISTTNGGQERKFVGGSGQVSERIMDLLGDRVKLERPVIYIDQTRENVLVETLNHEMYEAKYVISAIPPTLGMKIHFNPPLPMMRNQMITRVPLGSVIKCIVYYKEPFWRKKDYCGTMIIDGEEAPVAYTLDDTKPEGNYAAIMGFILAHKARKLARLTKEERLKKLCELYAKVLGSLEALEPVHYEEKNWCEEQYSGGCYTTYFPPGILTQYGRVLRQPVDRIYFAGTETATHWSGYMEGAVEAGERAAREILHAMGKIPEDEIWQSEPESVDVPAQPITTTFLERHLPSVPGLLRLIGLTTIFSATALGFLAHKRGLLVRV
Procedure: as §1, §2

[3] = cell-free, recombinant human MAO-A, read-out: IC50 MAO-A
[4] = cell-free, recombinant human MAO-A, read-out: IC90 MAO-A
[5] = cell-free, recombinant human MAO-A

| Structure (SMILES) | IC50 [1, 3] | IC90 [1, 4] | IC90 [2] | IC50 [2] | IC50 MAO-A (μM) [1, 5] | IC90 MAO-B (μM) [2] | IC50 ([1]; IC50 MAO-A (μM), cell-free, recombinant human MAO-A) | IC90 ([1]; read-out: IC90 MAO-A (μM)) |
| --- | --- | --- | --- | --- | --- | --- | --- | --- |
| C[C@H](Cc1ccc(OCc2ccc3ccccc3c2)cc1)N(C)CC(=O)O [PS-RG0227, (R)—N-methyl-N-(1-(4-(naphthalen-2-ylmethoxy)phenyl)propan-2-yl)glycine hydrochloride] | 955 µM | 63000 µM | 843 µM | 11500 nM | – | – | – | – |
| O=C(O)c1coc(Cc2ccc(OCc3ccccc3)cc2)n1 [PS-AD0031] | – | – | – | – | Does not | Does not | – | – |
| CN(CC(=O)O)[C@H](CCl)Cc1ccc(OCc2ccccc2)cc1 [PS-AD0095, (S)—N-(1-(4-(benzyloxy)phenyl)-3-chloropropan-2-yl)-N-methylglycine] | – | – | 13.4 µM | 1400 nM | Does not | – | – | – |
| C[C@H](Cc1ccc(OCc2cc(F)cc(F)c2)cc1)N(C)CC(=O)O.Cl [PS-RG0174, (R)—N-(1-(4-((3,5-difluorobenzyl)oxy)phenyl)propan-2-yl)-N-methylglycine hydrochloride] | – | – | 6.7 µM | 794 nM | Does not | – | – | – |
| C[C@H](Cc1ccc(OCc2ccccn2)cc1)N(C)CC(=O)O.Cl.Cl [PS-RG0217, (R)—N-methyl-N-(1-(4-(pyridin-2-ylmethoxy)phenyl)propan-2-yl)glycine hydrochloride] | – | – | 577 µM | 26600 nM | Does not | – | – | – |
| CN(CC(=O)O)c1ccc(CCOCc2ccccc2)cc1.Cl [PS-RG0210] | – | – | 708 µM | 23600 nM | Does not | – | – | – |
| CN(CC(=O)O)C(=O)C=C1COc2cc(Oc3ccccc3)ccc21 [PS-RG0080] | – | – | – | – | Does not | Does not | – | – |
| COC(=O)[C@H](Cc1ccc(OCc2ccccc2)cc1)N(C)CC(=O)O.Cl [PS-RG0123, N-Carboxymethyl)-N-(methyl-O-benzyloxytyrosine methyl ester hydrochloride] | – | – | 354 µM | 9950 nM | Does not | – | – | – |
| COC(=O)[C@H](Cc1ccc(OCc2cccc(Cl)c2)cc1)N(C)CC(=O)O [PS-RG0122, N-Carboxymethyl-N-methyl-O-3-chlorobenzyloxytyrosine methyl ester hydrochloride] | – | – | 19.1 µM | 1430 nM | Does not | – | – | – |
| C[C@H](Cc1ccc(OCc2cnc3ncccn23)cc1)N(C)CC(=O)O.Cl [PS-AD0223] | – | – | – | – | Does not | Does not | – | – |
| C[C@H](Cc1ccc(OCc2ccncc2)cc1)N(C)CC(=O)O.Cl.Cl [PS-AD0068, (R)—N-methyl-N-(1-(4-(pyridin-4-ylmethoxy)phenyl)propan-2-yl)glycine hydrochloride] | – | – | 506 µM | 20000 nM | Does not | – | – | – |
| C#CCN(C)[C@H](C)Cc1ccc(OCc2ccccc2)cc1 [PS-RG0061] | – | – | 0.023 µM | 4.58 nM | – | – | 0.163 µM | 1.05 µM |
| C[C@H](Cc1ccc(OCc2ccccc2Cl)cc1)N(C)CC(=O)O [PS-RG0121, N—((R)-(1-(4-(2-chlorobenzyloxy)phenyl)propan-2-yl)(methyl))glycine hydrochloride] | – | – | 8.13 µM | 668 nM | Does not | – | – | – |
| C[C@H](Cc1ccc(OCc2ccc(Cl)cc2)cc1)N(C)CC(=O)O [PS-RG0226, (R)—N-(1-(4-((4-chlorobenzyl)oxy)phenyl)propan-2-yl)-N-methylglycine hydrochloride] | 198 µM | 1260 µM | 3.42 µM | 505 nM | – | – | – | – |
| C[C@H](Cc1ccc(OCc2cc(Cl)ccc2Cl)cc1)N(C)CC(=O)O.Cl [PS-AD0064, (R)—N-(1-(4-((2,5-dichlorobenzyl)oxy)phenyl)propan-2-yl)-N-methylglycine hydrochloride] | – | – | 25.8 µM | 1270 nM | Does not | – | – | – |
| C[C@H](Cc1ccc(OCCc2ccccc2)cc1)N(C)CC(=O)O.Cl [PS-RG0247] | – | – | 619 µM | 19300 nM | Does not | – | – | – |

From patent US10196345B2, “MAO-B selective inhibitor compounds, pharmaceutical compositions thereof and uses thereof” (The University of British Columbia, priority 2013, dated 2019)
